Measurements published in PubChem BioAssay (NCI).
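In this assay, cells in 96-well plates receive the compound at five concentrations for 48 hours. Endpoints are linearly interpolated between the surrounding concentrations. At the GI50, growth is halved. TGI is the concentration that stops growth completely.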

Tests used:
Experiment in all cases: DTP human tumour cell line panel, 48 h
[1] = system: T-47D breast
[2] = system: SK-MEL-2 melanoma
[3] = system: PC-3 prostate
[4] = system: U251 CNS
[5] = system: MDA-MB-435
[6] = system: EKVX NSCLC
[7] = system: SF-295 CNS
[8] = system: SNB-75 CNS
[9] = system: NCI/ADR-RES ovarian
[10] = system: OVCAR-4 ovarian
[11] = system: KM12 colon
[12] = system: K-562 leukemia
[13] = system: LOX IMVI melanoma
[14] = system: UACC-62 melanoma
[15] = system: SW-620 colon
[16] = system: OVCAR-3 ovarian
[17] = system: OVCAR-5 ovarian
[18] = system: CCRF-CEM leukemia
[19] = system: A549 NSCLC
[20] = system: UO-31 renal
[21] = system: SR leukemia
[22] = system: HCC-2998 colon
[23] = system: UACC-257 melanoma
[24] = system: SK-OV-3 ovarian
[25] = system: SF-268 CNS
[26] = system: SNB-19 CNS
[27] = system: NCI-H460 lung
[28] = system: TK-10 renal
[29] = system: OVCAR-8 ovarian
[30] = system: MOLT-4 leukemia
[31] = system: IGROV1 ovarian
[32] = system: DU-145 prostate
[33] = system: 786-0 renal
[34] = system: M14 melanoma
[35] = system: NCI-H522 lung
[36] = system: MDA-MB-231 breast
[37] = system: RPMI-8226 leukemia
[38] = system: COLO 205 colon
[39] = system: HT29 colon
[40] = system: HL-60(TB) leukemia
[41] = system: SF-539 CNS
[42] = system: BT-549 breast
[43] = system: SN12C renal
[44] = system: SK-MEL-28 melanoma
[45] = system: HCT-15 colon
[46] = system: HCT-116 colon
[47] = system: MCF7 breast
[48] = system: CAKI-1 renal
[49] = system: SK-MEL-5 melanoma
[50] = system: RXF 393 renal
[51] = system: HOP-92 NSCLC

## CC(C)=CCC/C(C)=C/CC/C(=C/COP(=O)(OCc1ccc([N+](=O)[O-])o1)N(C)CCCCCl)CC=C(C)C (configuration not stated)
[1]
  GI50: 38 µM
  TGI: > 100 µM
[2]
  GI50: 3.09 µM
  TGI: 14.1 µM
[3]
  GI50: 8.62 µM
  TGI: 24.3 µM
[4]
  GI50: 2.78 µM
  TGI: 11.8 µM
[5]
  GI50: 4.98 µM
  TGI: 23.7 µM
[6]
  GI50: 3.73 µM
  TGI: 19.8 µM
[7]
  GI50: 7.14 µM
  TGI: 26 µM
[8]
  GI50: 12.1 µM
  TGI: 36.8 µM
[9]
  GI50: 6.11 µM
  TGI: 21.3 µM
[10]
  GI50: 11.9 µM
  TGI: 48.3 µM
[11]
  GI50: 2.98 µM
  TGI: 17.1 µM
[12]
  GI50: 9.45 µM
  TGI: > 100 µM
[13]
  GI50: 2.92 µM
  TGI: 11.5 µM
[14]
  GI50: 14.3 µM
  TGI: 32.5 µM
[15]
  GI50: 2.92 µM
  TGI: 6.98 µM
[16]
  GI50: 11.6 µM
  TGI: 29.4 µM
[17]
  GI50: 10.6 µM
  TGI: 24.3 µM
[18]
  GI50: 6.16 µM
  TGI: > 100 µM
[19]
  GI50: 8.66 µM
  TGI: 24.2 µM
[20]
  GI50: 5.56 µM
  TGI: 18.2 µM
[21]
  GI50: 3.02 µM
  TGI: > 100 µM
[22]
  GI50: 0.0597 µM
  TGI: 2.45 µM
[23]
  GI50: 6.57 µM
  TGI: 22.5 µM
[24]
  GI50: 18.2 µM
  TGI: 55.8 µM
[25]
  GI50: 15.1 µM
  TGI: 29.9 µM
[26]
  GI50: 19.5 µM
  TGI: 41.9 µM
[27]
  GI50: 3.75 µM
  TGI: 11.8 µM
[28]
  GI50: 14.6 µM
  TGI: 30.8 µM
[29]
  GI50: 3.04 µM
  TGI: 13.5 µM
[30]
  GI50: 4.14 µM
  TGI: > 100 µM
[31]
  GI50: 3.39 µM
  TGI: 14.4 µM
[32]
  GI50: 1.94 µM
  TGI: 18.6 µM
[33]
  GI50: 5.7 µM
  TGI: 19.2 µM
[34]
  GI50: 2.62 µM
  TGI: 10.2 µM
[35]
  GI50: 2.04 µM
  TGI: 7.47 µM
[36]
  GI50: 8.58 µM
  TGI: 22.8 µM
[37]
  GI50: 3.56 µM
  TGI: > 100 µM
[38]
  GI50: 8.01 µM
  TGI: 66.4 µM
[39]
  GI50: 4.56 µM
  TGI: 33.6 µM
[40]
  GI50: 4.81 µM
  TGI: > 100 µM
[41]
  GI50: 3.52 µM
  TGI: 11.9 µM
[42]
  GI50: 2.31 µM
  TGI: 7 µM
[43]
  GI50: 2.98 µM
  TGI: 12.3 µM
[44]
  GI50: 19.6 µM
  TGI: 43 µM
[45]
  GI50: 2.65 µM
  TGI: 12.5 µM
[46]
  GI50: 2.06 µM
  TGI: 7.97 µM
[47]
  GI50: 1.88 µM
  TGI: 5.91 µM
[48]
  GI50: 4.06 µM
  TGI: 19.7 µM
[49]
  GI50: 3.96 µM
  TGI: 12.1 µM
[50]
  GI50: 6.03 µM
  TGI: 22.8 µM
[51]
  GI50: 16.5 µM
  TGI: 36 µM
